MIC data for one compound are collected here from ChEMBL document CHEMBL1138924, “Crystal structure, spectroscopic, and biological study of the copper(II) complex with third-generation quinolone antibiotic sparfloxacin” (2006).

What all share (type): functional
The subject of one assay is Escherichia coli. Briefly: Antimicrobial activity against Escherichia coli.
A further assay relates to Pseudomonas aeruginosa. Put plainly: Antimicrobial activity against Pseudomonas aeruginosa.
The test system of the next assay is Staphylococcus aureus. Put plainly: Antimicrobial activity against Staphylococcus aureus.

Converted amounts (≈) assume the structure as drawn.

For `C[C@@H]1CN(c2c(F)c(N)c3c(=O)c(C(=O)O)cn(C4CC4)c3c2F)C[C@H](C)N1` [SPARFLOXACIN], the values for the MIC against Escherichia coli, in the assay on Pseudomonas aeruginosa and with Staphylococcus aureus were 8 µg/mL (≈ 20.4 µM), 0.25 µg/mL (≈ 0.637 µM) and 0.5 µg/mL (≈ 1.27 µM), respectively.
